Measurements from patent publication US20120208781A1, “AMINOGLYCOSIDE DOSING REGIMENS” (Achaogen, Inc., priority 2009, published 2012).
≈ marks a conversion by molar mass, not a printed value. Where “and” joins values, the source holds several entries; their conditions need not be identical. Identical values can stand only once. Like-named read-outs stand apart in the source and are kept apart here.

Tests used:
[1] = Pharmacokinetics of Compound 1 after single bolus IV injection in mice; format: in vivo, CD-1 mice; conditions: 10 mg/kg single bolus IV; for C0: 10 mg/kg
Experimental: (§1) Male CD-1 mice, Sprague Dawley rats, and beagle dogs were administered Compound 1 intravenously. Compound 1 was preformulated as a sterile isotonic solution of 10 mg/mL in PBS. Specifically, male CD-1 mice were administered a single bolus IV injection of the Compound at 10 mg/kg, via a bolus IV injection into the tail vein. Two blood samples per mouse were collected by retro-orbital puncture into tubes containing the anticoagulant K2EDTA prior to dosing and at 0.033, 0.083, 0.25, 0.5, 1 and 24 hours. Rats were administered Compound 1 at 10 mg/kg via a bolus IV injection into the tail vein. Twelve blood samples per rat were collected via a jugular vein cannula into tubes containing the anticoagulant K2EDTA at various timepoints (i.e., 0.033, 0.083, 0.25, 0.5, 1, 2, 4, 6, 8, 10, 12, and 24 hours). Male beagle dogs were administered Compound 1 at 10 mg/kg through a temporary percutaneous catheter placed in a peripheral vein. Whole blood samples (0.5 mL) were collected from each dog prior to dosing and at 0.033, 0.083, 0.25, 0.5, 1, 2, 4, 6, 8, and 24 hours via direct venipuncture of a jugular or cephalic vein into tubes containing the anticoagulant K2EDTA. A sparse sampling method was employed to conserve animals and provide the best data possible from fewer mice. Samples were centrifuged, and plasma was collected and transferred into a new tube and frozen at −80° C. until they were analyzed.
(§2) Blood, urine, and kidney samples collected over 24 hours were analyzed for Compound 1 levels using LC-MS/MS. Method performance was acceptable in the concentration ranges necessary to determine plasma levels. Compound 1 plasma concentrations were determined by comparing Compound 1 concentration in the sample to a standard curve derived from LC-MS/MS measurements of the analyte. The standard curve fit was linear with a 1/x^2 weighting.
(§3) Bioanalytical data analyses were carried out using Analyst software (version 1.4.1, Applied Biosystems, Toronto, ON, Canada). […] PK parameters were determined by noncompartmental analysis using WinNonLin. Plasma protein binding was determined using equilibrium dialysis. In vitro stability was determined using commercially available plasma, microsomes and hepatocytes.

[2] = Urine concentration analysis / urinary recovery of Compound 1 in beagle dogs; format: in vivo; conditions: 10 mg/kg IV; for % of Cmpd 1 recovered in urine: 24 hours; for concentration at 6 h / concentration at 12 h / concentration at 24 h: male, beagle, dog, urine, iv, read-out: Cmpd 1 urine concentration
Experimental: as §1, §2

[3] = Guinea pig toxicokinetics of Compound 1; format: in vivo, guinea pigs
Experimental: Additionally, four groups of four male and four female animals were utilized for toxicokinetic (TK) sampling and received the control or test article in the same manner as the main study groups at respective dose levels of 0 (Vehicle Control), 8, 30, or 80 mg/kg.
Physical examinations were conducted pretest on all animals and prior to study termination for main study animals. […] Blood samples for determination of the plasma concentrations of the test article were collected from TK animals at designated time points on Day 1 and Day 14. After blood collection, the TK animals were euthanized and the carcasses were discarded.

E. coli (EC) = assay: MIC, broth microdilution, Brooklyn hospital isolates: E. coli; format: cell-based; conditions: Escherichia coli; EC (n = 32)
Experimental: In another study, the activity of Compound 1 against a collection of contemporary Gram-negative bacteria was determined. Unique patient isolates of P. aeruginosa (PA), A. baumannii (AB), K. pneumoniae (KP), E. coli (EC), and Enterobacter spp. (EB) from prior surveys at 16 Brooklyn, N.Y. hospitals were selected based on resistance patterns. The majority of isolates were fingerprinted by automated ribotyping. MICs were performed by broth microdilution. PCR was used to identify aminoglycoside-modifying enzymes (AMEs) in AB and KP and the KPC gene in Enterobacteriaceae (EN). The expression of the efflux genes mexA, C, E and X in PA, and adeB in AB was assessed by real-time RT-PCR.

[4] = tested on: coagulase-negative staphylococci (CoNS); assay: MIC, CLSI broth microdilution, worldwide isolates: coagulase-negative staphylococci; format: cell-based
Description: In the first study, a total of 235 isolates were collected from medical centers worldwide and tested for susceptibility to Compound 1 and comparator agents by CLSI broth microdilution methods. […] Non-ENT GN pathogens included WT P. aeruginosa (PSA) and Acinetobacter spp. (ACB), and carbapenem (CARB)-R strains, including those with MBL and OXA enzymes, SA and coagulase-negative staphylococci (CoNS) included oxacillin-susceptible (MSSA/MS-CoNS) and —R (MRSA/MR-CoNS) strains.
Minimum inhibitory concentrations (MIC) were determined by reference Clinical and Laboratory Standards Institute (CLSI) broth microdilution methods per M7-A7 [2006]. Briefly, serial two-fold dilutions of Compound 1 and comparator AGs (together, “the test compounds”) were prepared at 2× concentration in appropriate diluent. The dilutions were mixed in 96-well assay plates with bacterial inoculum. Bacteria were suspended in sterile saline and added to each assay plate to obtain a final concentration of 5.5×10^5 CFU/mL. The plates were incubated at 35° C. for 20 hours in ambient air. […] After incubation, assay plates were read using a microtiter plate reader at 600 nm.

[5] = Pharmacokinetics of Compound 1 after single bolus IV injection in rats; format: in vivo, Sprague Dawley rats; conditions: for half-life / AUC(0-inf) / C0 / clearance / MRT inf / Vd: Sprague Dawley, rat, plasma, 10 mg/kg
Experimental: as §1, §2, §3

[6] = iv, 10 mg/kg single bolus IV, Mean ± SD
[7] = iv, 10 mg/kg single bolus IV, Rat 101
[8] = iv, 10 mg/kg single bolus IV, Rat 102
[9] = iv, 10 mg/kg single bolus IV, Rat 103

CN[C@@H]1[C@@H](O)[C@@H](O[C@@H]2[C@@H](O)[C@H](O[C@H]3OC(CNCCO)=CC[C@H]3N)[C@@H](N)C[C@H]2NC(=O)[C@@H](O)CCN)OC[C@]1(C)O [Compound 1, 6′-(2-Hydroxy-ethyl)-1-(4-amino-2(S)-hydroxy-butyryl)-sisomicin]
C0 [1]: 87.6 µg/mL | AUC(0-inf) ([1]; male, CD-1, mouse, plasma): 18500 ng·h/mL | clearance ([1]; male, CD-1, mouse, plasma): 9.02 mL/min/kg | half-life ([1]; male, CD-1, mouse, plasma): 84 min | MRT inf ([1]; male, CD-1, mouse, plasma, read-out: MRT0-∞): 36 min | Vd ([1]; male, CD-1, mouse, plasma, read-out: Vss): 0.34 L | Vd ([1]; male, CD-1, mouse, plasma, read-out: volume of distribution at steady state (Vss)): 0.34 L/kg | C0 ([1]; male, CD-1, mouse, plasma, iv, read-out: C0): 88 µg/mL | % of Cmpd 1 recovered in urine ([2]; Dog 6001): 134% | % of Cmpd 1 recovered in urine ([2]; Dog 6002): 135% | % of Cmpd 1 recovered in urine ([2]; Dog 6003): 87% | % of Cmpd 1 recovered in urine ([2]; Mean (±SD), 10 mg/kg): 119% and 119 ± 22% | Cmpd 1 urine concentration ([2]; Dog 6001, Total): 1070 µg/mL | Cmpd 1 urine concentration ([2]; Dog 6002, Total): 573 µg/mL | Cmpd 1 urine concentration ([2]; Dog 6003, 6 hr): 1180 µg/mL | Cmpd 1 urine concentration ([2]; Dog 6003, Total): 1324 µg/mL | concentration at 6 h ([2]; 10 mg/kg, Dog 6001, 6 hr): 1000 µg/mL | concentration at 12 h ([2]; 10 mg/kg, Dog 6001, 12 hr): 47 µg/mL | concentration at 24 h ([2]; 10 mg/kg, Dog 6001, 24 hr): 24 µg/mL | concentration at 6 h ([2]; 10 mg/kg, Dog 6002, 6 hr): 505 µg/mL | concentration at 24 h ([2]; 10 mg/kg, Dog 6002, 24 hr): 68 µg/mL | concentration at 12 h ([2]; 10 mg/kg, Dog 6003, 12 hr): 100 µg/mL | concentration at 24 h ([2]; 10 mg/kg, Dog 6003, 24 hr): 44 µg/mL | guinea pig AUC relative to average human AUC at proposed clinical dose ([3]; 80 mg/kg/day guinea pig vs 15 mg/kg human): 1.5 × | AUC ([3]; both sexes, Crl:HA (Albino Hartley), guinea pig, plasma, subcutaneous, guinea pigs, 80 mg/kg/day): 370000 ng·h/mL | MIC50 (E. coli (EC)): 1 µg/mL (≈ 1.69 µM) | MIC90 (E. coli (EC)): 2 µg/mL (≈ 3.37 µM) | MIC50 ([4]; CONS isolates): ≤ 0.25 µg/mL | MIC90 ([4]; CONS isolates): ≤ 0.25 µg/mL | Cumulative % inhibited at Cmpd. MIC ≦0.5 ([4]; CoNS (20)): 100.0% | tissue distribution [5]: distributed to rat kidneys | half-life ([5]; intravenous, read-out: t½ (renal clearance) (converted)): ~60 min | AUC(0-inf) [5, 6]: 15700 ng·h/mL | C0 [5, 6]: 37.5 µg/mL | clearance [5, 6]: 10.8 mL/min/kg | MRT inf ([5]; iv, 10 mg/kg single bolus IV, Mean ± SD, read-out: MRT0-∞): 42 min | Vd ([5]; iv, 10 mg/kg single bolus IV, Mean ± SD, read-out: Vss): 0.437 L/kg | half-life ([5]; iv, 10 mg/kg single bolus IV, Mean ± SD, read-out: t1/2 (converted)): 56.4 min | AUC(0-inf) [5, 7]: 13800 ng·h/mL | C0 [5, 7]: 41.7 µg/mL | clearance [5, 7]: 12.1 mL/min/kg | MRT inf ([5]; iv, 10 mg/kg single bolus IV, Rat 101, read-out: MRT0-∞): 36 min | Vd ([5]; iv, 10 mg/kg single bolus IV, Rat 101, read-out: Vss): 0.403 L/kg | half-life ([5]; iv, 10 mg/kg single bolus IV, Rat 101, read-out: t1/2 (converted)): 57 min | AUC(0-inf) [5, 8]: 18500 ng·h/mL | C0 [5, 8]: 42.2 µg/mL | clearance [5, 8]: 9.02 mL/min/kg | MRT inf ([5]; iv, 10 mg/kg single bolus IV, Rat 102, read-out: MRT0-∞): 48 min | Vd ([5]; iv, 10 mg/kg single bolus IV, Rat 102, read-out: Vss): 0.434 L/kg | half-life ([5]; iv, 10 mg/kg single bolus IV, Rat 102, read-out: t1/2 (converted)): 55.8 min | AUC(0-inf) [5, 9]: 14800 ng·h/mL | C0 [5, 9]: 28.8 µg/mL | clearance [5, 9]: 11.3 mL/min/kg | MRT inf ([5]; iv, 10 mg/kg single bolus IV, Rat 103, read-out: MRT0-∞): 42 min | Vd ([5]; iv, 10 mg/kg single bolus IV, Rat 103, read-out: Vss): 0.473 L/kg | half-life ([5]; iv, 10 mg/kg single bolus IV, Rat 103, read-out: t1/2 (converted)): 55.8 min | Cmax and exposure (AUC) dose linearity ([5]; intravenous dosing): dose linear to 75 mg/kg
